Test results from patent US11446287B2, “Compounds and methods for EP300 or CBP modulation and indications therefor” (Opna Immuno-Oncology SA, priority 2019, dated 2022).

molecular target: T1, Recombinant human CBP containing the bromodomain (CBP-BD (1043-1159)) (Homo sapiens, UniProt Q92793); assay: CBP Alphascreen binding assay; conditions: read-out: CREBBP (CBP) IC50
T1 construct: Recombinant human CBP bromodomain (CBP-BD (1043-1159)); made in house; host or cells: E. coli BL21-CodonPlus (DE3), modified pET vector
T1 sequence (Q92793 1081-1197): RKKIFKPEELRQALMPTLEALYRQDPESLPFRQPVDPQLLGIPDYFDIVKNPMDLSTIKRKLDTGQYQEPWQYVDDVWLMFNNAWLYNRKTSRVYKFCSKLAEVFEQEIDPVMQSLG
In short: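 Buffer: 50 mM HEPES pH 7.5, 50 mM NaCl, 0.01% BSA, 0.01% Triton X-100, 2 mM DTT. The signal was normalised to plate controls and fitted with a four-parameter curve to give IC50.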

Row | Structure (SMILES) | IC50 [nM]
1 | Cc1noc(C)c1-c1cnc2c(c1)c(-c1c(Cl)cc(C(=O)O)cc1OC(C)C)cn2C1(C)CCOC1 (stereo not shown) [P-0408, 3-chloro-4-(5-(3,5-dimethylisoxazol-4-yl)-1-(3-methyltetrahydrofuran-3-yl)-1H-pyrrolo[2,3-b]pyridin-3-yl)-5-isopropoxybenzoic acid] | 0.1 to 1000
2 | Cc1noc(C)c1-c1cnc2c(c1)c(C1CCC(C(=O)O)CC1)cn2-c1ccc(F)cc1F (stereo not shown) [P-0434, 4-(1-(2,4-difluorophenyl)-5-(3,5-dimethylisoxazol-4-yl)-1H-pyrrolo[2,3-b]pyridin-3-yl)cyclohexane-1-carboxylic acid] | 0.1 to 1000
3 | Cc1noc(C)c1-c1cnc2c(c1)c(-c1cccc(C(=O)O)c1)cn2Cc1ccccc1 [P-0048, 3-(1-benzyl-5-(3,5-dimethylisoxazol-4-yl)-1H-pyrrolo[2,3-b]pyridin-3-yl)benzoic acid] | 0.1 to 1000
4 | COC(=O)c1cc(-c2cn(C(c3ccccn3)C3CCCC3)c3ncc(-c4c(C)noc4C)cc23)ccn1 (stereo not shown) [P-0040, methyl 4-(1-(cyclopentyl(pyridin-2-yl)methyl)-5-(3,5-dimethylisoxazol-4-yl)-1H-pyrrolo[2,3-b]pyridin-3-yl)picolinate] | 0.1 to 1000
5 | Cc1cc(C(=O)O)cc(OC(C)C)c1-c1cn(C2CCOCC2)c2ncc(-c3c(C)noc3C)cc12 [P-0402, 4-(5-(3,5-dimethylisoxazol-4-yl)-1-(tetrahydro-2H-pyran-4-yl)-1H-pyrrolo[2,3-b]pyridin-3-yl)-3-isopropoxy-5-methylbenzoic acid] | 0.1 to 1000
6 | CCOc1cc(C(=O)O)nc(OCC)c1-c1cn(-c2ncccc2C#N)c2ncc(-c3c(C)noc3C)cc12 [P-0421, 5-(1-(3-cyanopyridin-2-yl)-5-(3,5-dimethylisoxazol-4-yl)-1H-pyrrolo[2,3-b]pyridin-3-yl)-4,6-diethoxypicolinic acid] | 0.1 to 1000
7 | Cc1noc(C)c1-c1cnc2c(c1)c(-c1cnn(CC(C)(C)O)c1)cn2C(c1ccccn1)C1CCCC1 (stereo not shown) [P-0037, 1-(4-(1-(cyclopentyl(pyridin-2-yl)methyl)-5-(3,5-dimethylisoxazol-4-yl)-1H-pyrrolo[2,3-b]pyridin-3-yl)-1H-pyrazol-1-yl)-2-methylpropan-2-ol] | 1000 to 8000
8 | Cc1noc(C)c1-c1cnc2c(c1)c(-c1ccc(C(=O)O)cc1OC(F)(F)F)cn2-c1ccc(=O)n(C)c1 [P-0399, 4-(5-(3,5-dimethylisoxazol-4-yl)-1-(1-methyl-6-oxo-1,6-dihydropyridin-3-yl)-1H-pyrrolo[2,3-b]pyridin-3-yl)-3-(trifluoromethoxy)benzoic acid] | 0.1 to 1000
9 | Cc1noc(C)c1-c1cnc2c(c1)c(-c1ccc(C(=O)O)cc1OC(F)(F)F)cn2-c1ccc(C2CC2)nc1 [P-0388, 4-(1-(6-cyclopropylpyridin-3-yl)-5-(3,5-dimethylisoxazol-4-yl)-1H-pyrrolo[2,3-b]pyridin-3-yl)-3-(trifluoromethoxy)benzoic acid] | 0.1 to 1000
10 | CCOc1cc(C(=O)O)c(F)cc1-c1cn(C2CCN(CCC#N)CC2)c2ncc(-c3c(C)noc3C)cc12 [P-0446, 4-(1-(1-(2-cyanoethyl)piperidin-4-yl)-5-(3,5-dimethylisoxazol-4-yl)-1H-pyrrolo[2,3-b]pyridin-3-yl)-5-ethoxy-2-fluorobenzoic acid] | 0.1 to 1000
11 | Cc1noc(C)c1-c1cnc2c(c1)c(-c1ccc(CC(=O)O)cc1F)cn2-c1ccc(F)cc1F [P-0437] | 0.1 to 1000
12 | COc1ncc(-n2cc(-c3ccc(C(=O)O)cc3OC(F)(F)F)c3cc(-c4c(C)noc4C)cnc32)cn1 [P-0392, 4-(5-(3,5-dimethylisoxazol-4-yl)-1-(2-methoxypyrimidin-5-yl)-1H-pyrrolo[2,3-b]pyridin-3-yl)-3-(trifluoromethoxy)benzoic acid] | 0.1 to 1000
13 | CCOc1cc(C(=O)O)nc(OCC)c1-c1cn(C2CCN(C(=O)OC(C)(C)C)CC2)c2ncc(-c3c(C)noc3C)cc12 [P-0433, 5-(1-(1-(tert-butoxycarbonyl)piperidin-4-yl)-5-(3,5-dimethylisoxazol-4-yl)-1H-pyrrolo[2,3-b]pyridin-3-yl)-4,6-diethoxypicolinic acid] | 0.1 to 1000
